The text below walks through data of US9302999B2, “Substituted triazoles as herbicides” (E. I. DU PONT DE NEMOURS AND COMPANY, priority 2012, dated 2016).

Read-outs that look alike come from different tables or passages of the source.

Holding throughout (assay type): in vivo
Assay [1] relates to morningglory (Ipomoea spp.). Put plainly: Test A pre-/postemergence: morningglory. Particulars: Ipomoea, 240 h; for pest or weed control at 125 g/ha: 125 g ai/ha; for pest or weed control at 500 g/ha: 500 g ai/ha. Summed up:
(§1)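 Each species received preemergence soil-directed spraying and, at the same time, postemergence treatment of seedlings 2–10 cm tall. Formulation: non-phytotoxic solvent mixture including surfactant. Response assessed visually about ten days on, relative to untreated controls, 0–100 scale.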

The test system of assay [2] is pigweed (Amaranthus retroflexus). Nature of the assay: Test A pre-/postemergence: pigweed. Particulars: Amaranthus retroflexus, 240 h; for pest or weed control at 125 g/ha: 125 g ai/ha; for pest or weed control at 500 g/ha: 500 g ai/ha. Summed up: as §1
In assay [3] the test system is wheat (Triticum aestivum). Put plainly: Test A pre-/postemergence: wheat. Particulars: Triticum aestivum, 240 h; for plant injury at 125 g/ha: 125 g ai/ha; for plant injury at 500 g/ha: 500 g ai/ha. The essentials:
as §1

The subject of assay [4] is corn (Zea mays). Put plainly: Test A pre-/postemergence: corn. The conditions noted are these: Zea mays, 240 h; for plant injury at 125 g/ha / plant injury at 500 g/ha: post-emergence, Postemergence, read-out: Corn plant response rating; for plant injury at 125 g/ha / Corn plant response rating (crop injury, 0 = no effect, 100 = complete kill) at 125 g/ha: 125 g ai/ha; for plant injury at 500 g/ha / Corn plant response rating (crop injury, 0 = no effect, 100 = complete kill) at 500 g/ha: 500 g ai/ha; for plant injury at 500 g/ha: visual rating on 0 to 100 scale (0 no effect, 100 complete control), approximately ten days; for Corn plant response rating (crop injury, 0 = no effect, 100 = complete kill) at 125 g/ha / Corn plant response rating (crop injury, 0 = no effect, 100 = complete kill) at 500 g/ha: pre-emergence, Preemergence. The essentials: as §1

Where [5] appears, read: post-emergence, Postemergence, 0 to 100 scale, 0 is no effect, 100 is complete control, read-out: Morningglory plant response rating.
The mark [6] stands for this setting: post-emergence, Postemergence, visual rating on 0 to 100 scale (0 no effect, 100 complete control), approximately ten days, read-out: Morningglory plant response rating.
The mark [7] stands for this setting: pre-emergence, Preemergence, 0 to 100 scale (0 no effect, 100 complete control), read-out: Plant response rating, Morningglory.
The mark [8] stands for this setting: post-emergence, Postemergence, 0 to 100 scale, 0 is no effect, 100 is complete control, read-out: Pigweed plant response rating.
Where [9] appears, read: post-emergence, Postemergence, visual rating on 0 to 100 scale (0 no effect, 100 complete control), approximately ten days, read-out: Pigweed plant response rating.
Where [10] appears, read: pre-emergence, Preemergence, 0 to 100 scale (0 no effect, 100 complete control), read-out: Plant response rating, Pigweed.
The mark [11] stands for this setting: post-emergence, Postemergence, 0 to 100 scale, 0 is no effect, 100 is complete control, read-out: Wheat plant response rating.
The mark [12] stands for this setting: post-emergence, Postemergence, visual rating on 0 to 100 scale (0 no effect, 100 complete control), approximately ten days, read-out: Wheat plant response rating.
Setting [13] is: pre-emergence, Preemergence, 0 to 100 scale (0 no effect, 100 complete control), read-out: Plant response rating, Wheat.
The mark [14] stands for this setting: 0 to 100 scale, 0 is no effect, 100 is complete control.
[15] abbreviates: 0 to 100 scale (0 no effect, 100 complete control).

As to `COc1nn(-c2ccc(C(F)(F)F)cc2)nc1Cn1ccc(C(F)(F)F)n1` [Compound 17, 4-methoxy-2-[4-(trifluoromethyl)phenyl]-5-[[3-(trifluoromethyl)-1H-pyrazol-1-yl]methyl]-2H-1,2,3-triazole], the pest or weed control at 125 g/ha in assay [1] (setting [5]) amounted to 50%; in assay [1] (setting [7]) it was 0%; in assay [2] (setting [8]), 90%; in assay [2] (setting [10]), 90%. Besides, the pest or weed control at 500 g/ha in assay [1] (setting [6]) came out at 90%; in assay [1] (pre-emergence, Preemergence, 0 to 100 scale, 0 is no effect, 100 is complete control, read-out: Plant response rating, Morningglory), 50%; in assay [2] (setting [9]), 100%; in assay [2] (pre-emergence, Preemergence, 0 to 100 scale, 0 is no effect, 100 is complete control, read-out: Plant response rating, Pigweed), 100%. In addition, the values for the plant injury at 125 g/ha in assay [3] (setting [11]), in assay [3] (setting [13]) and in assay [4] (setting [14]) were 20%, 0% and 30%, respectively. For the same compound, the plant injury at 500 g/ha in assay [3] (setting [12]) was 40%; in assay [3] (pre-emergence, Preemergence, 0 to 100 scale, 0 is no effect, 100 is complete control, read-out: Plant response rating, Wheat), 0%; in assay [4] it was 30%. This compound also showed a Corn plant response rating (crop injury, 0 = no effect, 100 = complete kill) at 125 g/ha in assay [4] (setting [15]) of 0%. In assay [4] (setting [14]), this compound yielded a Corn plant response rating (crop injury, 0 = no effect, 100 = complete kill) at 500 g/ha of 20%.

For the compound `CCc1nn(-c2ccc(C(F)(F)F)cc2)nc1Oc1cccc(OC(F)(F)F)c1` [Compound 125, 4-ethyl-5-[3-(trifluoromethoxy)phenoxy]-2-[4-(trifluoromethyl)phenyl]-2H-1,2,3-triazole], the pest or weed control at 125 g/ha in assay [1] (setting [5]) came to 60%; in assay [1] (pre-emergence, Preemergence, 0 to 100 scale where 0 is no effect and 100 is complete control, read-out: Plant response rating, Morningglory), 0%; in assay [2] (setting [8]), 90%; in assay [2] (pre-emergence, Preemergence, 0 to 100 scale where 0 is no effect and 100 is complete control, read-out: Plant response rating, Pigweed), 70%. The pest or weed control at 500 g/ha in assay [1] (setting [6]) is 100%; in assay [1] (setting [7]), 10%; in assay [2] (setting [9]), 100%; in assay [2] (setting [10]) it was 90%. The plant injury at 125 g/ha in assay [3] (setting [11]) is 0%; in assay [3] (pre-emergence, Preemergence, 0 to 100 scale where 0 is no effect and 100 is complete control, read-out: Plant response rating, Wheat), 0%; in assay [4] (setting [14]) it was 20%. The plant injury at 500 g/ha in assay [3] (setting [12]) worked out at 20%; in assay [3] (setting [13]) it was 0%; in assay [4], 30%. The same compound registered a Corn plant response rating (crop injury, 0 = no effect, 100 = complete kill) at 125 g/ha in assay [4] (0 to 100 scale where 0 is no effect and 100 is complete control) of 0%. Moreover, the Corn plant response rating (crop injury, 0 = no effect, 100 = complete kill) at 500 g/ha in assay [4] (setting [15]) stood at 0%.
